# From US20100316732A1, “BEVERAGE COMPOSITIONS FOR THE PROMOTION OF JOINT HEALTH IN COMPANION ANIMALS” (priority 2008, published 2010)
# Test: Maximum solubility per liter of the active ingredients
# Type: physicochemical
# Details: active ingredient of aqueous canine water formula
compound,measurement,value
[Cl-].[Cl-].[Mg+2] [Magnium chloride],Maximum Solubility/Liter,1100 mg/L
